# Reference: US20200016163A1, “TREATMENT OF DEMENTIA WITH CANNABINOID AGONISTS” (priority 2017, published 2020)
# “Also recorded” adds a separate entry of the source.
# Tests used:
# [1] = test system: lesion of cholinergic cells of nucleus basalis magnocellularis in rats (model of irreversible Alzheimer-type dementia); test: Barnes maze (spatial memory) in rats with 192 IgG-saporin lesion of the nucleus basalis magnocellularis, 1 round of training sessions; format: in vivo, Sprague Dawley rats; conditions: 5 administrations
# Text: The animal model used is the lesion of cholinergic cells of nucleus basalis magnocellularis in rats to cause memory loss that is sustained over time. It is a recognized model of irreversible-type dementia, specifically of irreversible Alzheimer-type dementia.
# (§1) More specifically, a bilateral lesion was generated in the nucleus basalis magnocellularis in the brain of male Sprague Dawley rats (male 150-200 g) by means of stereotaxic coordinates (bregma −1.5 mm anteroposterior, ±3 mm laterodorsal and −8 mm ventral from the surface of the cranium) by injecting toxin 192 IgG-saporin (Merck-Millipore. Ref:MAB390) (SAP, n=30) (135 ng/μl/hemisphere; 0.25 μl/min) dissolved in artificial cerebrospinal fluid (CSF, n=28) (148 mM NaCl, 2.7 mM KCl, […], 1.2 mM CaCl2.2H2O; pH 7.4 adjusted with 1 mM K2HPO4) and the same method was carried out for the lesion control group but in this case only CSF (1 μl/hemisphere) was injected. Finally, as control of the latter, another group of animals was used which only received the injection of the needle and no compound was administered (SHAM, n=7). To stabilize the lesion process, the animals were not handled for one week. […] The compound is dissolved in DMSO:Cremophor:saline according to ratio [1:1:18].
# The test used to evaluate the cognitive deficit of these models was the Barnes maze, which measures spatial memory. It is a circular maze with 20 holes on the periphery and only one of them has an escape box. When the animal finds this box, it is returned to its cage. This method is performed four times a day for four days (16 training sessions). On the fifth day, the hole leading to the escape box is covered and the animal explores the maze for three minutes for the purpose of finding this hole (test). The time in the target quadrant will be evaluated in the test. This parameter indicates if the animal accurately remembers where the escape hole is located because it will spend more time in the quadrant containing said hole (target quadrant). This parameter was analyzed by means of SMART 3.0 video-tracking software. Compared to other types of behavioral tests that evaluate memory in rodents, this test has the advantage that there is no aversive stimulus with which effects relating to fear and anxiety may interfere, which thereby prevents confusing anxiolytic effects with cognitive enhancing effects.
# [2] = test system: lesion of cholinergic cells of nucleus basalis magnocellularis in rats (model of irreversible Alzheimer-type dementia); test: Barnes maze in 192 IgG-saporin lesioned rats, 2 rounds of training sessions (second round with treatment); format: in vivo, Sprague Dawley rats; conditions: SAP* rats with previously shown deficit (SAP*+WIN); new escape hole, 0.5 mg/kg i.p. on 4 training days and test day from day 18
# Procedure: as §1
# The test used to evaluate the cognitive deficit of these models was the Barnes maze, which measures spatial memory. It is a circular maze with 20 holes on the periphery and only one of them has an escape box. When the animal finds this box, it is returned to its cage. […] The time in the target quadrant will be evaluated in the test. […] This parameter was analyzed by means of SMART 3.0 video-tracking software. […]
Structure (SMILES),"effect of CB1 antagonist co-administration on the WIN55,212-2 effect, time in the target quadrant, Barnes maze test ([1]; SAP-lesioned rats (SAP+W+SR), SR141716A 0.5 mg/kg together with WIN55,212-2 0.5 mg/kg i.p.)","effect on memory of a control rat (time in the target quadrant), Barnes maze test ([1]; CSF control rats (CSF+W3), 3 mg/kg i.p.)","time in the target quadrant, Barnes maze test, non-lesioned control group ([1]; CSF control rats (CSF+WIN), 0.5 mg/kg i.p. once daily)","time in the target quadrant, Barnes maze test, high dose ([1]; SAP-lesioned rats (SAP+W3), 3 mg/kg i.p.)","time in the target quadrant (memory deficit), Barnes maze test ([1]; SAP-lesioned rats (SAP+WIN), 0.5 mg/kg i.p. once daily, one hour before training/test, 0.5 mg/kg)","ability to remember the escape hole (time in the target quadrant), Barnes maze test [2]"
Cc1c(C(=O)NN2CCCCC2)nn(-c2ccc(Cl)cc2Cl)c1-c1ccc(Cl)cc1 [SR141716A],"reversing the effect produced by treatment with WIN55,212-2 alone",,,,,
"Cc1c(C(=O)c2cccc3ccccc23)c2cccc3c2n1[C@H](CN1CCOCC1)CO3 [WIN55,212-2]",,detrimental for memory,no effect,behave like a control rat,had no memory deficits; also recorded: spends the most amount of time in the target quadrant,capable of remembering it
